# Laboratory results from a melting point compilation (Tetko et al.; mined from patent text by program, amines drawn as free bases though some values may be those of a salt).
row,SMILES,melting point [°C]
1,CCCC1=C(C#N)C(c2ccccc2Cl)c2c(n[nH]c2-c2ccccc2OC)N1 (stereo unspecified),> 270
2,CC(C)(C)c1csc(-c2cc3cc(CCl)ccc3o2)n1,117 to 119
3,Cc1ccc(Cc2nc3c(cnn3C(CCCc3ccccc3)C(C)O)c(=O)[nH]2)cc1 (stereo unspecified),133
4,CCN(CC)S(=O)(=O)c1cc(O)c(N=Nc2c(C)nn(CC)c2O)c2ccccc12,174 to 175
5,CC(=O)OC1CC2=CC=C3C4CCC(C(C)C=CC(C)C(C)C)C4(C)CCC3C2(C)C(OC(C)=O)C1 (stereo unspecified),128 to 130
6,N#Cc1ccc(CC(=O)Nc2cccc(C(=O)NCCC(=O)OCc3ccccc3)c2)cc1,98 to 99
7,COc1ccc(S(=O)(=O)N2Cc3ccccc3N(C(=O)c3ccc(-n4ccc(C)n4)cc3Cl)CC2C(=O)NO)cc1 (stereo unspecified),189 to 191
8,CC(C)(C)N=NC1(C(N)=O)CCCCC1,86 to 92
9,Cc1ccnc(C(O)c2cc(F)ccc2F)c1 (stereo unspecified),105 to 106
10,Nc1nc2ccc(Oc3ccc(F)cc3)cc2s1,126 to 128
11,CCc1cn(C[C@@H](C)O)c2ccc(F)cc12,65 to 67
12,Nc1ccc(NCCc2ccccc2)c(S(=O)(=O)CCO)c1,197
13,CC(C)CC1(CC(=O)NO)CCN(CCc2ccccc2)C1=O (stereo unspecified),123 to 124
14,Cc1cccc(-c2nc(C)cc(NC3CCCCC3)n2)n1,59.6 to 65
15,Cc1cc(/C=C/C(=O)N(C)O)c(C)n1-c1ccc(C(=O)N(C)C)cc1,172 to 174
16,Cc1ccc2ccc(N3C(=O)c4cccnc4C3OC(=O)N3CCN(C)CC3)nc2n1 (stereo unspecified),226
17,CN(C)C=CC(=O)C1CC1,55
18,COc1c(C)c(C)c(OC)c(CCCCO)c1C,85.1 to 87.1
19,O=C(O)c1cccc(C(=O)c2ccc(F)cc2)c1,180
20,COc1ccc(C(=O)O)cc1OC(=O)c1ccccc1,180 to 183
21,O=[N+]([O-])c1ccc(Oc2ccc(C(c3ccc(Oc4ccc([N+](=O)[O-])c(O)c4)cc3)(C(F)(F)F)C(F)(F)F)cc2)cc1O,148 to 151
22,C=C(c1ccsc1C(=O)O)c1cc(C(C)(C)C)cc2c1CCC2(C)C,146 to 148
23,CC(C)(C)C1CC(=O)CC(C(C)(C)C)N1 (stereo unspecified),55.4
24,COc1cc(Cl)ccc1C(=O)Nc1ccc(-n2nc(C(F)(F)F)cc2C(F)(F)F)cc1,178 to 180

row,SMILES,melting point [°C]
1,CC(C)(C)OC(=O)N1CCc2cc3nccnc3cc2CC1,107 to 109
2,O=c1c2cc(F)ccc2nc(C(S)c2ncnc3[nH]cnc23)n1-c1ccccc1Cl (stereo unspecified),233
3,O=C(Nc1nnn(C(F)F)n1)C1c2ccccc2Oc2ccccc21,168 to 169
4,Cc1cccc2[nH]c(-c3ccccc3F)nc12,161 to 162
5,CNc1cc(NS(=O)(=O)c2cccc(C(F)(F)F)c2)nc(NC)n1,234 to 235
6,CCC(=O)N=C(Nc1c(Cl)cccc1Cl)SC,165 to 170
7,COCOc1ccccc1-c1cc(-c2ccccc2C(=O)OC)c(C#N)c(NC(=O)c2cccs2)n1,190 to 191
8,CCOC(=O)CCN1CCN(C2=Nc3ccccc3Sc3ccc(Cl)cc32)CC1,79 to 80
9,COc1cccc(OC)c1Cl,69 to 71
10,COc1cc(COc2nn(-c3ccccc3)cc2C=O)ccc1OCc1nc(-c2ccccc2)sc1C,164 to 165
11,C=CCc1ccccc1OCC(O)CNCCc1ccc(NC2CCN(S(=O)(=O)c3ccc(NC(=O)NCCCCCC)cc3)CC2)cc1 (stereo unspecified),68 to 70
12,CN1CCN(c2cnc([N+](=O)[O-])c(Cl)n2)CC1,50
13,O=C(N[C@H]1CCCNC1=O)c1c(F)cccc1F,190 to 194
14,C#CCNC(=O)N1c2ccccc2-c2noc3c2C1CCC3 (stereo unspecified),220
15,CC(C)(C)c1cc(C(c2ccccc2)c2cc(C(C)(C)C)cc(C(C)(C)C)c2O)c(O)c(C(C)(C)C)c1,165 to 167
16,O=C(O)c1ccccc1C(=O)c1ccc(O)c(-c2ccccc2)c1,273
17,CS(=O)(=O)c1ccc(-c2oc3ccccc3c(=O)c2-c2ccc(F)c(Cl)c2)cc1,196
18,NC(=O)NN=Cc1ccc(Oc2ccncc2)cc1,212 to 213
19,CC(C)n1nc(-c2sc(C(=O)NC3CC3)nc2-c2ccc(F)cc2)ccc1=O,157 to 158
20,Nc1cc(C(=O)O)ccc1OCCCCCCc1cccc(O)c1O,172 to 174
21,CCCCCS(=O)(=O)NC(=O)/C=C/c1ccc(OCCO[Si](C(C)C)(C(C)C)C(C)C)cc1Oc1ncc(C(F)(F)F)cc1Cl,106 to 108
22,ON=C(Cl)c1ccc(C(Cl)=NO)cc1,178 to 180
23,O=C(NCC(=O)c1c(O)cc(O)cc1OCc1ccccc1)OCc1ccccc1,129 to 131

# Further lines, results first:
row,melting point [°C],SMILES
1,194 to 195,Nc1cccc(CN2CCC(NC(=O)NC(=O)c3ccccc3)CC2)c1
2,156 to 157,C[C@H](CO)[C@H]1CC[C@H]2[C@@H]3C=CC4=CC(=O)C=C[C@]4(C)[C@H]3CC[C@]12C
3,140 to 142,O=C1NC(OC(=O)c2ccccc2)C2=C1c1ccc(Cl)cc1C(c1ccccc1Cl)=NC2 (stereo unspecified)
4,216 to 220,O=C(O)CCCc1ccc2c(NC(=O)CC3CCCCC3)c(Cl)ccc2n1
5,127 to 129,Cc1nccn1-c1nc(-c2ccc(C(F)(F)F)cc2)c(CCCO)o1
6,70,CCCCCCCCCCS(=O)(=O)NC(=O)c1cnc(C(=O)NCC(=O)OCC)c(OC)c1
7,178 to 181,N#CC1=C(N)CCN(C(=O)c2ccccc2)C1
8,195 to 198,CC(c1cc(Cl)ccc1N1CCCCC1C)C(C(N)=O)c1ccc(C(=O)O)cc1 (stereo unspecified)
9,73 to 75,CC(C)(N)CNC(CO)(CO)CO
10,147 to 148,O=C(O)c1ccc(CCCC2SCC(=O)N2CCC2(O)CCCCC2)cc1 (stereo unspecified)
11,175 to 178,CCOC(=O)c1cn(-c2cnsn2)c2nc(Cl)c(F)cc2c1=O
12,167 to 168,COc1cc(COc2nn(Cc3ccccc3)cc2C(=O)O)ccc1OCc1nc(-c2ccco2)oc1C
13,195 to 200,Cc1cnc(C)n1CC(O)c1ccc(-c2ccc(N3C[C@H](Cn4ccnn4)OC3=O)cc2F)cn1 (stereo partly specified)
14,124,CC(C)(C)OC(=O)N[C@@H](Cc1ccccc1)[C@H](O)CNC1(c2cccc(C(F)(F)F)c2)CC1
15,208 to 210,CC(C(=O)O)(c1ccc(OCc2ccc3ccccc3n2)cc1)c1ccc(OCc2ccc3ccccc3n2)cc1
16,111,CCOC(=O)C1=C(CC)N(CCOC(=O)c2ccccc2)C(=O)NC1c1ccccc1 (stereo unspecified)
17,120 to 125,[O-][N+]1=C(c2ccccc2)c2cc(Cl)ccc2CCC1
18,205 to 207,CN1C(=O)CC[C@]2(C)c3ccc(-c4cccc5cccnc45)cc3CC[C@@H]12
19,162,CC1=C(C(=O)OCC(Cl)(Cl)Cl)N2C(=O)C(NC(=O)Cc3ccccc3)C2SC1 (stereo unspecified)
20,193 to 194,COCc1c(C(=O)c2ccccc2)ncc2[nH]c3ccc(Oc4ccc(Br)cn4)cc3c12
21,51.5 to 52.5,COC(=O)CC(NC1CC1)=C(C(=O)OC)C(=O)C(F)(F)F
22,225,CCOC(=O)c1ccc(COCc2csc3nc(C(=O)NCc4ccnc(OCC5CCOC5)c4)[nH]c(=O)c23)cc1 (stereo unspecified)
23,102 to 105,CN(CCCNC(=NCCCCOc1cccc(CN2CCCCC2)c1)NC#N)CCN(Cc1ccc(F)cc1)c1ccccn1
24,129 to 130,Cc1cc(C)n2ncc(F)c2n1
25,198 to 200,CNC(=O)NC(=O)N1CCN(c2ccccc2)CC1

row,melting point [°C],SMILES
1,142 to 143,Cc1cc(/C=C/C(c2cc(Cl)cc(Cl)c2)C(F)(F)F)ccc1C(=O)O (stereo unspecified)
2,235 to 237,CCC(=O)c1cc(C(=O)O)c2cc(Cc3ccc(F)cc3)cnc2c1O
3,80,CC(=O)N(O)Cc1cccc([N+](=O)[O-])c1
4,131 to 133,CC(C)n1cnc2c(NCc3cccnc3)nc(F)nc21
5,92 to 95,COC(=O)CCCCc1ccc(O)c(CCC(=O)OC)n1
6,103 to 104,CCN(CC)C(=O)c1ccc2ccccc2c1-c1ccc(F)cc1
7,51,COc1ccc(C(=CN(C)C)C(C)=O)cc1
8,138 to 139,C=CCOC(=O)c1ccc(OC(=O)c2ccc(OC)c(C34CC5CC(CC(C5)C3)C4)c2)c(C)c1
9,77 to 78,COc1cc(O)c([N+](=O)[O-])cc1C(F)(F)F
10,48 to 50,COc1ccccc1OCC(O)CCCl (stereo unspecified)
11,220 to 222,CC(=O)N1CCN(CC(=O)Nc2nc(-c3ccccc3)c(-c3ccc(=O)n(C(C)C)n3)s2)CC1
12,233 to 235,FC(F)c1nc2ccccc2n1-c1nc(Nc2ccncn2)nc(N2CCOCC2)n1
13,139 to 141,O=C1NC=C(C(=O)O)CN1
14,205 to 207,COc1ccc(C(=O)Nc2ccc(-n3nc(C(F)(F)F)cc3C(F)(F)F)cc2)cc1
15,101 to 103,CC(C)(C=NO)C(O)(CCc1ccc(F)cc1)Cn1cncn1 (stereo unspecified)
16,296 to 298,OCc1ccc(-c2cc3c(NCc4cccc(Cl)c4)ncnc3[nH]2)cc1
17,203 to 204,CC1CC2C3CCC4=CC(=O)C=CC4(C)C3(F)C(O)CC2(C)C1(O)C(=O)COC(=O)OCc1ccccc1[N+](=O)[O-] (stereo unspecified)
18,191,CCOc1ccc(C(CC(N)=O)N2C(=O)c3ccccc3C2=O)cc1 (stereo unspecified)
19,94 to 96,O=C(c1ccccc1)c1cc2c([N+](=O)[O-])c(O)c(O)cc2oc1=O
20,248,COc1ccccc1[C@@]1(O)[C@H](O)CC(c2ccccc2)(c2ccccc2)[C@@H]2CN(C(=O)Cc3c[nH]c4ccc(F)cc34)C[C@@H]21 (racemic)
21,85 to 88,COc1ccc(C(O)=C(C#N)C(=O)C(C)(C)C)c([N+](=O)[O-])c1
22,119 to 122,Cc1cc2c(cc1C(=O)c1c(C(F)(F)F)ccnc1Cl)OCO2
23,151 to 161,CCc1c(-c2ccc(OCc3ccccc3)cc2)c2c(C(=O)O)c(C(=O)O)c3c(OCc4ccccc4)ccc1n32
24,189 to 190,COc1ccc(N2CCN(c3c(C)c(C)c4c(c3C)C(O)(c3ccc5ccccc5c3)C(C)(C)O4)CC2)cc1 (stereo unspecified)
